Measurements: patent US20240329056A1, “COMPONENT ASSAY FOR ALZHEIMER'S DISEASE IN A LIVING SUBJECT” (CASSAVA SCIENCES, INC., priority 2021, published 2024)
One block for each molecule: values may come before it.

What was measured:
[1] = molecular target: T1, filamin A linkages with α7-nicotinic acetylcholine receptor (Homo sapiens, UniProt P21333); assay: Phase 2a trial, filamin A linkage with α7-nicotinic acetylcholine receptor; assay type: in vivo; conditions: after 28 days of treatment
T1 construct: filamin A linkages with α7-nicotinic acetylcholine receptor and toll-like receptor 4; endogenous in cells; host or cells: patients' lymphocytes
Experimental: (§1) Briefly, the study included 13 mild-to-moderate Alzheimer's disease patients, age 50-85, Mini Mental State Exam≥16 and ≤24 with a cerebrospinal fluid total tau/Aβ42 ratio […]. A pharmaceutical composition containing 100 mg of simufilam (PTI-125) in an orally administered tablet were given to the patients twice daily for 28 consecutive days. The study was conducted at five sites in the U.S. under an Investigational New Drug (IND) application.
(§2) Biomarker reductions were at least p 0.001 by paired “t” test. Target engagement was shown in lymphocytes by a shift in filamin A's conformation from aberrant to native: 93% was aberrant on Day 1 vs. 40% on Day 28.

[2] = tested on: cerebrospinal fluid biomarkers of Alzheimer's disease pathology, neurodegeneration and neuroinflammation; assay: Phase 2a clinical trial, cerebrospinal fluid and plasma biomarkers; assay type: in vivo, human
From the text: A small Phase 2a clinical trial that utilized a contemplated prognostic method along with other methodologies was first reported in the fall of 2019. The results of that trial were thereafter reported at Clinical Trials on Alzheimer's Disease (CTAD), December 4-7th, 2019 in San Diego, CA, and were published as Wang et al., J Prev Alzheimers Dis published 7 Feb. 2020. The use of the assay disclosed herein was neither shown nor discussed in that article.
as §1
Consistent with the drug's mechanism of action and preclinical data, the simufilam (PTI-125) reduced cerebrospinal fluid biomarkers of Alzheimer's disease pathology, neurodegeneration and neuroinflammation from baseline to Day 28.
Total tau, neurogranin, and neurofilament light chain decreased by 20%, 32% and 22%, respectively. Phospho-tau (pT181) decreased 34%, evidence that the compound suppresses tau hyperphosphorylation induced by Aβ42's signaling through α7-nicotinic acetylcholine receptor. Cerebrospinal fluid biomarkers of neuroinflammation (YKL-40 and inflammatory cytokines) decreased by 5-14%. Biomarker effects were similar in plasma.
This increase is consistent with the compound's 1,000-fold reduction of Aβ42's femtomolar binding affinity to α7-nicotinic acetylcholine receptor.

filamin A = molecular target: T2, filamin A (Homo sapiens, UniProt P21333); assay: Phase 2a trial, target engagement in lymphocytes: filamin A conformation; assay type: in vivo
T2 construct: endogenous in cells; host or cells: patients' lymphocytes
T2 sequence (P21333 whole entry): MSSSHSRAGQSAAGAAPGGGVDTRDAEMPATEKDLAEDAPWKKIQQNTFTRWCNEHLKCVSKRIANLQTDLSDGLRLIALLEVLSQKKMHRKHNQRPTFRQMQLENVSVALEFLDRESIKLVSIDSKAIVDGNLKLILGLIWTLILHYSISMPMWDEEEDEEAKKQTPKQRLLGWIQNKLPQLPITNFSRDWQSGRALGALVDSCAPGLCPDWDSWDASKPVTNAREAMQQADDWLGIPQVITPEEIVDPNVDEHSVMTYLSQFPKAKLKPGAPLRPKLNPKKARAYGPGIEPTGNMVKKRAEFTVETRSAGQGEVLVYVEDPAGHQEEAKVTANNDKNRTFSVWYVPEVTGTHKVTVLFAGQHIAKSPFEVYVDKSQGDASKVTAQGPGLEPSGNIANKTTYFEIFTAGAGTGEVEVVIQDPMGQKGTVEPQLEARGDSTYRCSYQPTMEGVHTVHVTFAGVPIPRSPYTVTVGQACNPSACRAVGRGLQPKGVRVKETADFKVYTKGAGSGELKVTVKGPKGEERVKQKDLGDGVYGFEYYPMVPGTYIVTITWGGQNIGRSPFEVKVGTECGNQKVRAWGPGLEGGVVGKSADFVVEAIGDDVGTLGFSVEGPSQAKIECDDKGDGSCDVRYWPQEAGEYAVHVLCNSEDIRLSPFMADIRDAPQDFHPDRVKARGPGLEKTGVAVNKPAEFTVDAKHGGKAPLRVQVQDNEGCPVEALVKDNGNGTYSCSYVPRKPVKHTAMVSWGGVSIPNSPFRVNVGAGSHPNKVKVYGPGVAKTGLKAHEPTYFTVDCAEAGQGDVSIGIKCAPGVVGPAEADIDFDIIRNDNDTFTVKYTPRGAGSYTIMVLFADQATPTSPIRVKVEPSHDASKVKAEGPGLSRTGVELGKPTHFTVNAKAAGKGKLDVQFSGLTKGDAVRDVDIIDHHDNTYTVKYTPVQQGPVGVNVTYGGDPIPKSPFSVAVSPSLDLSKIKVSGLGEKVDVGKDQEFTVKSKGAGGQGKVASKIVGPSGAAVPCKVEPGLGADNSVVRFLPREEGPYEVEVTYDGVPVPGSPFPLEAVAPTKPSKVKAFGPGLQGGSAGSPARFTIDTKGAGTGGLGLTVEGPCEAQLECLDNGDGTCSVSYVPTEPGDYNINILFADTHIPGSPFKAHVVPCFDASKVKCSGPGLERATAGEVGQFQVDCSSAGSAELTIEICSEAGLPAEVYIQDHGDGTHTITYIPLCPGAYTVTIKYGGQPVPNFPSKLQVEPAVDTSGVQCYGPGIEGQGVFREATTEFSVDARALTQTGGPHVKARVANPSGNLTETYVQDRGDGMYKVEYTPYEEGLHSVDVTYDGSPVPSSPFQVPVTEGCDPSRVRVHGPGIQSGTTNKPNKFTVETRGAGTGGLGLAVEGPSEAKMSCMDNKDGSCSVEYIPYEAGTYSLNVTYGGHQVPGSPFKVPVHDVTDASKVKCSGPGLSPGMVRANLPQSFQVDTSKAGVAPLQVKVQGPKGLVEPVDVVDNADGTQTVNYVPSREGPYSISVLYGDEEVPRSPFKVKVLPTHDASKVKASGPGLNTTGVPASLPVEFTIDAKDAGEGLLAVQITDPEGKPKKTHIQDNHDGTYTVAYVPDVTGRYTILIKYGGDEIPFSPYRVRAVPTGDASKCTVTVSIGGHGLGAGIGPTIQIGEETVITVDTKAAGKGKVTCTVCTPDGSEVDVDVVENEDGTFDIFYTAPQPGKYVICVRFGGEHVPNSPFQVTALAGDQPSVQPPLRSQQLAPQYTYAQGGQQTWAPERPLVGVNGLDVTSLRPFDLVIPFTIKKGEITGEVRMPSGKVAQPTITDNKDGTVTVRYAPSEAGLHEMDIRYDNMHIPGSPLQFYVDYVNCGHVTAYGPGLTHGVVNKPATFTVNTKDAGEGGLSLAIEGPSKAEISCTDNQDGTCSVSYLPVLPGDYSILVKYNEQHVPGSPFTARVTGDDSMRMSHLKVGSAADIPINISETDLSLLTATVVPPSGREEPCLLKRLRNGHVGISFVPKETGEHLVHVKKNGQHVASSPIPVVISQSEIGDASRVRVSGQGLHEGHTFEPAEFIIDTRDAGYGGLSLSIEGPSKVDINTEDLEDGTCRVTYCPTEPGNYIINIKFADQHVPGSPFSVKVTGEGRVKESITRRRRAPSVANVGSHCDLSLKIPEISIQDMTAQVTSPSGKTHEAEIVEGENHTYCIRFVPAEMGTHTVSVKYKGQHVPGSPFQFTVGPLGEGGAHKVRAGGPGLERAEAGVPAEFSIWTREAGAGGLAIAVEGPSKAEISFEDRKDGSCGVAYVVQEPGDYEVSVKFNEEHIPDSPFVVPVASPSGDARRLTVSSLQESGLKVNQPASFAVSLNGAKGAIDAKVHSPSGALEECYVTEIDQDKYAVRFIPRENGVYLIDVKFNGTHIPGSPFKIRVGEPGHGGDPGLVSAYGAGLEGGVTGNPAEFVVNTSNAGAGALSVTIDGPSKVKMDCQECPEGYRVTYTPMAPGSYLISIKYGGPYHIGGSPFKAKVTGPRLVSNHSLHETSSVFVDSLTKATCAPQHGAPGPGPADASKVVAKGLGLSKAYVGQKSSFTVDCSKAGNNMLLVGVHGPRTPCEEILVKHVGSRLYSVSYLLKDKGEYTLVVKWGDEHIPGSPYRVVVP
Experimental: as §1, §2

[3] = Phase 2a trial, safety and tolerability; assay type: in vivo, human; conditions: all patients, 100 mg twice daily for 28 days
Experimental: as §1

[4] = molecular target: α7-nicotinic acetylcholine receptor (Homo sapiens, UniProt P36544); conditions: cited from earlier work
α7-nicotinic acetylcholine receptor, sequence (P36544 23-502): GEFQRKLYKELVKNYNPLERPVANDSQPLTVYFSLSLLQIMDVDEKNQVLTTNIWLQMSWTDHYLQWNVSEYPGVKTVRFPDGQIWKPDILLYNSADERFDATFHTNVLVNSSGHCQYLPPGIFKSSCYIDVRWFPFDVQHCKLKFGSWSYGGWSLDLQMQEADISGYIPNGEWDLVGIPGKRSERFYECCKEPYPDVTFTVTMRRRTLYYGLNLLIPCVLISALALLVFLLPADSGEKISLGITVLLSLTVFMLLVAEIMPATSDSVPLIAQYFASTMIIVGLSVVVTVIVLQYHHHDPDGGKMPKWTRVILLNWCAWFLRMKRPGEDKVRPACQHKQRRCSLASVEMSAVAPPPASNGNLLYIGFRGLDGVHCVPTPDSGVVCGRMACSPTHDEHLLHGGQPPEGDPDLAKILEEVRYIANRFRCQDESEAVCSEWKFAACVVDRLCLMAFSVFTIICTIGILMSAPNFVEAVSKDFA

Aβ42 complexes with CD14 = assay: Phase 2a trial, Aβ42 complexes with CD14; assay type: in vivo, human; conditions: after 28 days of treatment
Experimental: as §1, §2

[5] = molecular target: T3, filamin A linkages with toll-like receptor 4 (Homo sapiens, UniProt P21333); assay: Phase 2a trial, filamin A linkage with toll-like receptor 4; assay type: in vivo; conditions: after 28 days of treatment
T3 construct: filamin A linkages with α7-nicotinic acetylcholine receptor and toll-like receptor 4; endogenous in cells; host or cells: patients' lymphocytes
Experimental: as §1, §2

cytokine release = conditions: Wang et al., J. Neurosci. 2012; cited from earlier work
[6] = tested on: about 90 kDa FLNA polypeptide fragment; assay: Phase 2a trial, about 90 kDa FLNA polypeptide fragment in plasma; assay type: in vivo, human; conditions: group of 13 patients, P<0.01
Experimental: FIG. 13 is a graph showing the amounts in arbitrary units of the about 90 kDa FLNA polypeptide fragment found in the plasma of 13 AD patients in a Phase 2a clinical trial who were treated with a medicament twice daily for 28 days and had their blood plasma assayed on days 0, 14 and 28 for the presence and amount of the about 90 kDa FLNA polypeptide fragment.
as §1
An assay for the presence and amount of the about 90 kDa FLNA polypeptide fragment in the plasma of each patient was also separately determined on days 0, 14 and 28 of the trial. […] Those results are shown graphically in FIG. 13 and indicate that the treatment appeared to be effective and was in agreement with the more standard assays.

[7] = tested on: Aβ42 complexes with α7-nicotinic acetylcholine receptor; assay: Phase 2a trial, Aβ42 complexes with α7-nicotinic acetylcholine receptor; assay type: in vivo, human; conditions: after 28 days of treatment
Experimental: as §1, §2

[8] = Phase 2a trial, plasma pharmacokinetics; assay type: in vivo, human
Experimental: as §1

[9] = molecular target: FLNA association with toll-like receptor 4 (TLR4) (Homo sapiens, UniProt P21333); conditions: Wang et al., J. Neurosci. 2012; cited from earlier work
[10] = tested on: prefrontal cortex and hippocampus brain slices; assay: Ex vivo organotypic brain slice culture with Aβ42 exposure; assay type: cell-based; conditions: rat brain slices, serum-deprived, 100 μM Aβ1-42
Experimental: We hypothesize that the 90-kDa pS^2152FLNA fragment is derived from degenerated and ruptured neurons in the brain.
Using two brain regions known to be vulnerable to AD damage, 200-μm sections of prefrontal cortex and hippocampus were prepared from 10-week-old rats. These brain slices were cultured as described previously (Wang et al., above) for 4 days to permit recovery of slice preparation damage. These slices were then serum-deprived and incubated with 100 μM Aβ1-42 (Aβ42).
The presence of the 90-kDa pS^2152-FLNA fragments and pS^2152-FLNA protein, as well as other biomarkers that reflect neuronal destruction, nitrated tau (nY^29-tau) and glial damage [truncated glial fibrillary acidic protein (GFAP)] in the culture medium were assessed by Western blotting. The specificity of Aβ42 was defined by Aβ421, an intrareversal peptide.
The 90-kDa pS^2152-FLNA fragment, but not full-length (280-kDa) pS^2152-FLNA protein, appears in the medium starting at 4 hours post-Aβ42 addition and steadily increases over time. […] In addition, full-length GFAP, followed by its truncated form, appears early following Aβ1-42 exposure.

[11] = cerebrospinal fluid, baseline to Day 28, 100 mg twice daily

Filamin A linkages with α7-nicotinic acetylcholine receptor [1]: significantly reduced
Aberrant filamin A conformation (filamin A; Day 1): 93%
Aberrant filamin A conformation (filamin A; Day 28): 40%
Filamin A linkages with toll-like receptor 4 [5]: significantly reduced
Drug accumulation ([8]; Day 28 vs. Day 1): approximately 30%
half-life ([8]; human, plasma, AD patients, 100 mg oral twice daily): 4.5 h
Molecule: CN1CCC2(CC1)NCC(=O)N2Cc1ccccc1 [simufilam]
Biomarker response ([2]; 13 mild-to-moderate AD patients, 100 mg oral tablet twice daily for 28 days, baseline to Day 28): All patients showed a biomarker response
Aβ42 change ([2]; baseline to Day 28, 100 mg twice daily): increased slightly
Cerebrospinal fluid biomarkers of neuroinflammation (YKL-40 and inflammatory cytokines) decrease [2, 11]: 5-14%
Neurofilament light chain decrease [2, 11]: 22%
Neurogranin decrease [2, 11]: 32%
Phospho-tau (pT181) decrease [2, 11]: 34%
Total tau decrease [2, 11]: 20%
Biomarker effects in plasma ([2]; plasma compared with cerebrospinal fluid): similar
Safety and tolerability [3]: safe and well-tolerated
Reduction of Aβ42's femtomolar binding affinity to α7-nicotinic acetylcholine receptor [4]: 1,000 fold
Aβ42 complexes with CD14 (Aβ42 complexes with CD14): significantly reduced
Cytokine release (cytokine release): preventing
Amount of the 90 kDa FLNA polypeptide fragment in the plasma ([6]; 14 days into the trial): decrease
Amount of the 90 kDa FLNA polypeptide fragment in the plasma ([6]; 28 days into the trial): decrease
Aβ42 complexes with α7-nicotinic acetylcholine receptor [7]: significantly reduced
FLNA association with toll-like receptor 4 (TLR4) [9]: reducing

Molecule: Aβ42: amyloid-beta peptide generated by cleavage of amyloid precursor protein; used to induce AD-like damage in brain slices
Time of first appearance of 90-kDa pS2152-FLNA fragment in the medium post-Aβ42 addition [10]: 4 hours
